Assay results reported in EP4111863A1, “PHOSPHORUS USE EFFICIENCY ENHANCERS AS PLANT GROWTH PROMOTORS” (EuroChem Antwerpen, priority 2021, dated 2023).

Test system: SPX1
Assay: Chemical activity assessment: SPX1 phosphate starvation biomarker, pSPX1::GUS reporter line, GUS stained area
Format: in vivo, Arabidopsis thaliana
Settings: 50 µM compound, low phosphate modMS liquid medium, 7 days after germination, low phosphate control average of the same plate
Method: All Arabidopsis plant experiments were performed using the Arabidopsis thaliana Columbia-0 background. The Arabidopsis pSPX1::GUS line is described in the […] 2008, 54: 965-975. For rice, the cultivar Nipponbare was used. For maize, the cultivars DKC 2931 and B104 were used for regular pot experiments and sand-based pot experiments, respectively. For soybean, the cultivar Primus was used. […] The medium was solidified due to the addition of 0,6% Gelrite, unless stated otherwise. In case of vertical plates (root length and root hair measurements), the medium was supplied with 0.5% of sucrose and 1 µM (low phosphate, 1 µM KH2PO4, 9.9 mM KCI), 10 µM (low phosphate 10 µM KH2PO4, 9.9 mM KCI) or 1.25 mM KH2PO4 (high phosphate). Arabidopsis seeds were stratified for 2 days at 4 °C before germination. Seedlings were germinated in climate-controlled growth chambers at 22 °C under continuous light (100 µmol m^-2 s^-1). Husked rice seeds were germinated on wetted Whatman paper for 2 days at 37 °C and then transferred to Sterivent boxes or square Petri dishes with solid medium. Maize and soybean seeds were wetted 24 hours at room temperature prior to sowing in pots.
For the chemical activity assessment 3 to 8 seeds per well of Arabidopsis pSPX1::GUS line were sown in 96-well plates containing 150 µl of low phosphate modMS liquid medium containing 1% of sucrose. Compounds were added in 50 µM concentration, starting from a 5 mM stock of compounds solved in DMSO. Different chemical substances were separately added to different wells. Per plate, 16 control wells were used, 8 containing only the low phosphate medium and 1% DMSO, and 8 containing high phosphate medium and 1% DMSO. 7 days after germination, plates were scanned using a flatbed scanner (EPSON Expression 11000XL) and analyzed for leaf size. After scanning, the growth medium was replaced by GUS staining solution (see Plant Mol. Biol. Rep. 1994, 12: 37-42 for details) and incubated for 1.5 hours at 37 °C. The plates were scanned a second time and analyzed for GUS signal area. Measurements of both leaf area and GUS signal area were conducted by filtering out and measure the green and blue signal, respectively using ImageJ software. If the green leaf area was 50% or less than the control, samples were omitted. Additionally, all results were visually screened for leaf size and GUS signal.

SMILES	GUS (SPX1) stained area normalized to the number of seeds (pixels) (Table 3)	GUS (SPX1) stained area normalized to the number of seeds (pixels) (Table 2)
Cc1cc(C)n(CC2CN(CC(=O)N(C)c3nccs3)CCO2)n1 (stereo not shown)	15	
C=CCn1c(SCc2cccc(S(=O)(=O)N3CCOCC3)c2)nc2ccccc21	1	
COC(=O)c1ccc(N2CCOC(c3ccc(C)o3)C2)nc1C (stereo not shown)	24	
O=C(CSc1ccc(F)cc1)Nc1ccc(Cl)c(S(=O)(=O)N2CCOCC2)c1	5	
CCCCn1c(N)c(C(=O)NCCN2CCOCC2)c2nc3ccccc3nc21	20	
Clc1cnccc1N1CCC(OCCN2CCOCC2)CC1	491	
CC(c1nnc(-c2cccs2)o1)N1CCOC(c2nccs2)C1 (stereo not shown)	453	
C=CCCN1CC(C(=O)OC)O[C@H](C)C1 (stereo partly shown)	5	
CC1CN(c2ccc([N+](=O)[O-])nc2)CC(c2ccsc2)O1 (stereo not shown)	55	
O=C(NC1COc2ccccc21)N1CCOC(c2ccc(Cl)cc2)C1 (stereo not shown)	8	
Cc1cc(C)c(C)c(OC(=O)N2CCOCC2)c1	17	
C[C@@H](CO)NS(=O)(=O)c1ccc(S(=O)(=O)N2CCOCC2)cc1	1	
CCc1ccnc(C(=O)Nc2cnccc2N2CCOCC2)c1	27	
CCC1CN(C(=O)c2[nH]nc(C)c2Br)CCO1 (stereo not shown)	0	
Cc1csc(C2COCCN2C(=O)NC2CCc3ccccc32)n1 (stereo not shown)	12	
Cc1csc(C2CN(Cc3csc(C(C)(C)C)n3)CCO2)n1 (stereo not shown)	1	
O=C(COc1cc(Cl)ccc1Cl)NCc1ccc(N2CCOCC2)nc1	3	
Cc1nc(Cl)cc(N2CCOCC2c2c(C)nn(C)c2C)n1 (stereo not shown)	35	
CC(=O)Nc1ccc(Sc2cc(C(=O)N3CCOCC3)c3ccccc3n2)cc1	18	
CC1CN(S(=O)(=O)N(CC2CCOC2)C2CC2)CC(C)O1 (stereo not shown)	60	

SMILES	GUS (SPX1) stained area normalized to the number of seeds (pixels) (Table 3)	GUS (SPX1) stained area normalized to the number of seeds (pixels) (Table 2)
CN1CCOC2CN(Cc3cc(O)ccc3Br)CC21 (stereo not shown)	12	
Cc1nnc(CN2CCOCC2c2cccn2C)o1 (stereo not shown)	50	
O=C(Cc1c[nH]c2cc(Cl)ccc12)N1CCOCC1c1ncon1 (stereo not shown)	22	
Cc1cccc(-n2c(SCC3COc4ccccc4O3)nnc2N2CCOCC2)c1 (stereo not shown)	26	
O=C(c1csc(-c2cccs2)n1)N1CCOC2CCCCC21 (stereo not shown)	2	
c1ccc2sc(SN3CCOCC3)nc2c1	1	
CC(C)c1ncsc1C(=O)NCC1CN(C)CCO1 (stereo not shown) [Compound 4.4]		106
CC(C)CC1COCCN1C(=O)Nc1nnc(C(F)(F)F)s1 (stereo not shown)	7	
O=S(=O)(N1CCOCC1)N1CCN(Cc2noc(-c3ccc(F)cc3)n2)CC1	19	
CC1CN(Cn2nc(-c3cccs3)nc2S)C(C)CO1 (stereo not shown)	9	
Cc1nnc(NC(=O)N2CC(C)OC(c3ccsc3)C2)s1 (stereo not shown)	20	
CSc1nnc(CN2CC(c3ccccc3)OCC2(C)C)s1 (stereo not shown)	43	
O=C(C1CN(C(=O)CSc2nc3ccccc3o2)c2ccccc2O1)N1CCOCC1 (stereo not shown)	34	
CCCn1nc(C(=O)N2CC(C)OCC2C)ccc1=O (stereo not shown)	2	
c1ccc2sc(CN3CCOC(c4nccs4)C3)nc2c1 (stereo not shown)	49	
CCc1nnc(NC(=O)N2CCOCC2CC(C)C)s1 (stereo not shown)	16	
CC1CN(S(=O)(=O)CCNc2nc(-c3ccncc3)nc3ccccc23)CC(C)O1 (stereo not shown)	1	
COCC(C)Nc1ccc(N2CCOC(C)(C)C2)cc1OC (stereo not shown)	7	
c1ccc(OCCNCCN2CCOCC2)cc1	23	
Cc1csc(C2CN(Cc3ncc(C(C)(C)C)o3)CCO2)n1 (stereo not shown)	5	

SMILES	GUS (SPX1) stained area normalized to the number of seeds (pixels) (Table 3)	GUS (SPX1) stained area normalized to the number of seeds (pixels) (Table 2)
C1CCC(Sc2nnc(N3CCOCC3)s2)C1	35	
Cc1cc(C)n(CC2CN(c3ncnc4ccsc34)CCO2)n1 (stereo not shown)	44	
Cc1nc2c(c(C)nn2C)c(C)c1CCC(=O)N1CC(C)OC(C)C1 (stereo not shown)	27	
c1coc(CNc2nc(N3CCOCC3)nc3ccccc23)c1	2	
CCN1CCOC(CNCc2ccc(-n3cncn3)cc2)C1 (stereo not shown)	301	
CC1(C)CN(c2snc(Cl)c2C#N)CCO1	0	
O=C(C1CSCN1C(=O)CC1=CCCCC1)N1CCOCC1 (stereo not shown)	162	
CC1CN(C(=O)Nc2cc(C(C)C)on2)CC(c2ccsc2)O1 (stereo not shown)	23	
CC(C)(C)Nc1nn(CN2CCOCC2)c(=S)s1	7	
O=C(O)c1cc(Cl)nc(N2CCOCC2)c1	0	
O=S(=O)(c1ccc(OCCN(C2CC2)C2CCCc3ccccc32)cc1)N1CCOCC1 (stereo not shown)	3	
O=C1c2cccc3cccc(c23)C(=O)N1CCN1CCOCC1	29	
Cc1cccc(N2CCOC3(CCCC3)C2)n1	25	
CN1CCOC(C(=O)N2CCN(CC3CC3)c3ccccc32)C1 (stereo not shown)	64	
CC1COCCN1Cn1nc(Br)nc1Br (stereo not shown)	47	
COc1ccc(-c2[nH]c3ccccc3c2CCC(=O)N2CCOCC2)cc1	3	
O=C(c1cccs1)C(C(c1ccc(Cl)cc1)N1CCOCC1)N1CCOCC1 (stereo not shown)	3	
O=C(C1=C(O)C(=O)N(CCN2CCOCC2)C1c1ccccc1)c1cccs1 (stereo not shown)	5	
